Data from US5521284A, “Human cancer inhibitory pentapeptide amides and esters” (priority 1994, dated 1996).

Assays:
[1] = tested on: P388 Lymphocytic Leukemia; assay: Murine in vivo system, P388 Lymphocytic Leukemia
Excerpt: (§1) T/C = Test Control, both bearing tumor, expressed in time of survival.
(§2) T/C - 100 = % life extension.

Human Mammary Xenograph = Human Mammary Xenograph Nude Mouse; conditions: 26 μg/kg
Excerpt: as §1, §2

[2] = tested on: LOX Human Melanoma Xenograph; assay: LOX Human Melanoma Xenograph (Nude Mouse)
Excerpt: as §1, §2

B16 Melanoma = assay: Murine in vivo system, B16 Melanoma; conditions: 11.11 μg/kg
Excerpt: (§3) Experimental Anticancer Activity of Dolastatin 10 in
(§4) Murine in vivo Systems, T/C (μg/kg)
as §2

[3] = tested on: MX-1 Human Mammary Xenograft; assay: MX-1 Human Mammary Xenograft (Tumor Regression); assay type: in vivo, Murine
Excerpt: as §3, §4, §2

[4] = tested on: OVCAR-3 Human Ovary Xenograph; assay: OVCAR-3 Human Ovary Xenograph Nude Mouse; assay type: in vivo; conditions: 40 μg/kg; time of survival
Excerpt: as §3, §4, §2

[5] = tested on: L1210 Lymphocytic Leukemia; assay: Murine in vivo system, L1210 Lymphocytic Leukemia; conditions: 1.63 μg/kg; time of survival
Excerpt: as §3, §4, §2

OVCAR-3 = assay: NCI in vitro mini panel, Ovarian OVCAR-3; assay type: cell-based, Human; conditions: 48 hrs
Method: (§5) ED50 (P388) and GI50 (HTCL) identify the drug dose which reduces the percent tumor/cell growth to 50%. There is no mathematical difference between ED50 and GI50, both of which are calculated using the same formula. The only difference is historical usage.
(§6) TGI, means "Total Growth Inhibition", and identifies the drug dose needed to yield zero percent growth, i.e. there are just as many cells at the end of the experiment as were present at the beginning. Whether just as many cells were killed as were produced (steady state), or no growth occurred (total inhibition) cannot be distinguished.
(§7) LC50, means "Lethal Concentration 50%", and identifies the drug concentration which reduces to one-half of the cells originally present at the beginning of the experiment.
(§8) Each drug is tested at five (5) doses: 100-10-1-0.1-0.01--μg/mL. Percent Growths are calculated for each dose. The two (or three) doses with growth values above, below, (or near to) 50% growth are used to calculate the ED50 /GI50 values using a linear regression computation. If no dose yields a growth value under 50%, the results are expressed as: ED50 >(highest dose). If no dose yields growth higher than 50% growth, then ED50 <(lowest dose). Similar calculations are performed for the TGI at 0% growth, and at -50% growth for the LC50.
(§9) At the start of each experiment, cells from the in vitro cell cultures are inoculated into the appropriate tubes or microtiter plates. One set of control tubes/plates is immediately counted to determine the number of cells at the start of the experiment. This is the "baseline count", or "Tzero reading". At the end of the experiment (48 hrs later), a second set of control tubes/plates is analyzed to determine the "Control Growth" value. The growth (or death) of cells relative to the initial quantity of cells is used to define the "Percent of Growth."
(§10) For each of six cell lines, GI50, TGI, and LC50 amounts were also calculated for each of the compounds. Each compound was also tested against the PS-388 cell line and for this test an ED50 was calculated.
(§11) The protocols followed, for the NCI minipanel are, except for the number of cell lines, those established by M. R. Boyd Ph.D., and well known to those of ordinary skill in the art. The procedure followed for the test against PS-388 Leukemia is the same that was followed in the superseded NCI P-388 screening test, which is also well known to those having ordinary skill in the art.

SK-MEL-5 = assay: NCI in vitro mini panel, Melanoma SK-MEL-5; assay type: cell-based, Human; conditions: 48 hrs
Method: as §5, §6, §7, §8, §9, §10, §11

NCI-H460 = assay: NCI in vitro mini panel, Lung-NSC NCI-H460; assay type: cell-based, Human; conditions: 48 hrs
Method: as §5, §6, §7, §8, §9, §10, §11

PS-388 = PS-388 Mouse Leukemia cell line test; assay type: cell-based; conditions: Mouse Leukemia PS-388
Method: as §5, §8, §9, §10, §11

A498 = assay: NCI in vitro mini panel, Renal A498; assay type: cell-based, Human; conditions: 48 hrs
Method: as §5, §6, §7, §8, §9, §10, §11

KM20L2 = assay: NCI in vitro mini panel, Colon KM20L2; assay type: cell-based, Human; conditions: 48 hrs
Method: as §5, §6, §7, §8, §9, §10, §11

SF-295 = assay: NCI in vitro mini panel, CNS SF-295; assay type: cell-based, Human; conditions: 48 hrs
Method: as §5, §6, §7, §8, §9, §10, §11

| Substance | GI-50 (OVCAR-3) [µg/mL] | LC-50 (OVCAR-3) [µg/mL] | TGI (OVCAR-3) [ng/mL] | GI-50 (SK-MEL-5) [µg/mL] | LC-50 (SK-MEL-5) [µg/mL] | TGI (SK-MEL-5) [ng/mL] | GI-50 (NCI-H460) [µg/mL] | LC-50 (NCI-H460) [µg/mL] | TGI (NCI-H460) [ng/mL] | ED-50 (PS-388) [µg/mL] | GI-50 (A498) [µg/mL] | LC-50 (A498) [µg/mL] | TGI (A498) [ng/mL] | GI-50 (KM20L2) [µg/mL] | LC-50 (KM20L2) [µg/mL] | TGI (KM20L2) [ng/mL] | GI-50 (SF-295) [µg/mL] | LC-50 (SF-295) [µg/mL] | TGI (SF-295) [ng/mL] | other results |
| --- | --- | --- | --- | --- | --- | --- | --- | --- | --- | --- | --- | --- | --- | --- | --- | --- | --- | --- | --- | --- |
| Dolastatin 10 | – | – | – | – | – | – | – | – | – | – | – | – | – | – | – | – | – | – | – | cures ([1]; 3.25 μg/kg): 17%; cures ([1]; 6.5 μg/kg): 17%; T/C ([1]; 13.0 μg/kg): toxic; T/C (Human Mammary Xenograph): Toxic; cures ([2]; 3.25 μg/kg): 17%; T/C ([2]; 3.25 μg/kg, time of survival): 170; cures ([2]; 6.5 μg/kg): 33%; cures ([2]; 13 μg/kg): 50%; cures ([2]; 26 μg/kg): 67%; T/C ([2]; 52 μg/kg): toxic; T/C ([2]; Lox in separate experiments, 43 μg/kg, time of survival): 340; cures (B16 Melanoma): 40%; T/C (Tumor Regression) ([3]; 6.25 μg/kg): 69; T/C (Tumor Regression) ([3]; 13 μg/kg): 61; T/C (Tumor Regression) ([3]; 26 μg/kg): 50; T/C (Tumor Regression) ([3]; 52 μg/kg): 14; T/C [4]: 300; T/C [5]: 120 |
| Dov-Ie-Dil-Dap-Doe [Compound 12] | 0.0000000091 | > 1 | 6e-05 | 0.0000000048 | > 1 | 0.00015 | 0.0000000058 | > 1 | 6.5e-05 | 0.0000248 | 0.000000058 | > 1 | 17 | 0.0000000072 | > 1 | 0.0001 | 0.000000025 | > 1 | 0.00025 | – |
| Dov-Val-Dil-Dap Octyl ester [Compound 16b] | 0.0031 | > 1 | 40 | 0.0027 | > 1 | > 1000 | 0.0042 | > 1 | 58 | 0.029 | 0.025 | > 1 | 550 | 0.0017 | > 1 | 130 | 0.0054 | > 1 | > 1000 | – |
| Dov-Val-Dil-Dap Pentyl ester [Compound 16a] | 0.00052 | > 1 | 1.1 | 0.00066 | > 1 | 31 | 0.00034 | > 1 | 1.1 | 0.021 | < 0.0001 | > 1 | 180 | – | > 1 | 13 | – | > 1 | 21 | – |
| Dov-Val-Dil-Dap hexylamide [Compound 16c] | 0.0005 | > 0.01 | 3.9 | 0.00058 | > 0.01 | > 10 | 0.00071 | > 0.01 | 5.1 | 0.00227 | 0.0019 | > 0.01 | > 10 | 0.00092 | > 0.01 | 6.6 | 0.0011 | > 0.01 | > 10 | – |
| Dov-ile-Dil-Dap-Met-OMe [Compound 14] | 0.000067 | > 1 | 0.67 | 0.000044 | > 1 | 22 | 0.00012 | > 1 | 0.13 | 0.00032 | 0.00027 | > 1 | 35 | 0.000034 | > 1 | 1.3 | 0.00025 | > 1 | > 1000 | – |
